What was measured:
Assay type in all cases: in vivo
[1] = test system: tomato; test: Tomato petri plate assay; conditions: Solanum lycopersicum, 144 h; 10 ppm; after 6 days of continuous exposure; read-out: Percent Increase (percent change in primary tomato root length)
Description: For tomato, the plants were grown in disposable (150 mm) sterile plastic petri plates (Falcon, BD Biosciences, Franklin Lakes, N.J.). In the tomato assay, a single sheet of Whatman #1 filter paper was placed at the bottom of the plate, 15 tomato seeds were added, and 10 mL of treatment solution was added. At the end of 6 d, the 10 largest seedlings were selected for measurement from each plate. In each study, a minimum of 3 replicate plates were used. In tomato, several S-Benzylthiouracil compounds were tested to determine the effects on root growth.

[2] = test system: Arabidopsis accession Columbia; test: Arabidopsis petri plate (agar medium) assay, root growth; conditions: 6 days after sowing, control 3.3
Description: For Arabidopsis, a solid medium was required. Typically, half-strength MS salts were dissolved in water, and 1% (w/v) BactoAgar (DIFCO) was added. Following autoclaving, sterile S-Benzylthiouracil solutions were added to medium prior to pouring 30 mL of agar medium per petri plate. Arabidopsis seeds were sown in a sterile manner, and seeds were germinated and grew on the agar surface until primary root length was measured.
Of increased importance for understanding mode of action, Arabidopsis has become the model system of choice. In Table 20, the effect of Compound 1 in growth medium on root growth of Arabidopsis accession Columbia is shown.

[3] = test system: Maize (cultivar; Kuromochi); test: Maize growth promotion by seed treatment; conditions: for Percent (shoot weight, untreated control = 100) / Average weight of the shoots: 18th day after seeding; for Average weight of the shoots: control 3.8
Description: Maize seeds (cultivar; Kuromochi) were treated with Compound 1 at dose rates of 0.005 grams to 0.5 gram per 100 kilogram seeds. The seeds were sown into a soil pot (one seed/pot) and then cultivated in a growth chamber at a temperature of 27° C. and a day length of 16 hours for 18 days. On the 18th day after seeding, the fresh shoot weight of each plant was examined for 3 replicates.

[4] = test system: Rice (cultivar; Nipponbare); test: Rice growth enhancement by seed treatment under low temperature stress; parameters: Average weight of the shoots: unit not given here; conditions: for Average weight of the shoots: 4° C. for 6 days, 27th day, control 15.4
Description: Rice seeds (cultivar; Nipponbare) were treated with the Compound 1 at dose rates of 0.5 gram to 50 grams per 100 kilogram seeds. Treated rice seeds were sown and cultivated in 2-fold diluted Kimura B hydroponic solution (Plant Science 119:39-47 (1996) in a growth chamber at a temperature of 28° C. (day)/23° C. (night) and a day length of 12 hours for 10 days.
Following hydroponic cultivation for 10 days the plants were exposed to low temperature stress at 4° C. for 6 days at a day length of 12 hours in a growth chamber. After the low temperature stress treatment, the plants were transferred to 4-fold diluted Hoagland's hydroponic solution (California Agricultural Experiment Station 1950 Circular 347 pp. 34) and cultivated for […] at a temperature of 28° C. and a day length of 12 hours. On the 27th day of the sequential hydroponic cultivation, each fresh shoot weight of the plant was measured for 4 replicates.

[5] = test system: Wheat (cultivar; Apogee); test: Wheat yield enhancement by foliar spray treatment under high temperature stress; conditions: for Average fresh weight of young ears: 36° C./32° C. for 7 days, 56th day after seeding, control 1.68
Description: Wheat (cultivar; Apogee) was sown in soil pots (5 seeds/pot) and then cultivated in a growth chamber at a temperature of 18° C. (day)/15° C. (night) and at a day length of 12 hours for 28 days. Plants were thinned to 3 plants/pot. On the 28th day after sowing, the plants were treated by foliar spray application with a solution containing the test compound. On the 2nd day after the spray application the plants were subjected to high temperatures for 7 days in a growth chamber 36° C. (day)/32° C. (night) and a day length of 12 hours. After the stress treatment, the plants were cultivated in a growth chamber at a temperature of 18° C. (day)/15° C. (night) and a day length of 12 hours. On the 56th day after seeding, the total fresh weight of the young ears from the 3 plants in each pot was measured (n=8 replicates).
Wheat seeds (cultivar; Apogee) were sown in soil pots (5 seeds/pot) and then cultivated in a growth chamber at a temperature of 18° C. (day)/15° C. (night) and at a day length of 12 hours for 28 days. The wheat plants on the 28th day after seeding were treated by foliar spray application with a solution containing the Compound 1 at concentrations of 1 ppm to 100 ppm. As an untreated control group, the plants were treated with blank solution without Compound 1. Three seedlings per pot were used for the test. On the 2nd day after the spray application, the plants were treated with high temperature for 7 days in a growth chamber at a temperature of 36° C. (day)/32° C. (night) and a day length of 12 hours. After the stress treatment, the plants were cultivated in a growth chamber at a temperature of 18° C. (day)/15° C. (night) and a day length of 12 hours. On the 56th day after seeding, total fresh weight of young seed heads from 3 plants in each pot were measured for 8 replicates of each treatment.

[6] = seed treatment 0.005 grams/100-kg seeds
[7] = seed treatment 0.05 grams/100-kg seeds
[8] = seed treatment 0.5 grams/100-kg seeds

`Oc1ccnc(SCc2cccc(F)c2)n1` [Compound 1, S-(3-Fluorobenzyl)-2-thiouracil] was tested, and the change in vivo at 10 ppm [1] was 8.3%, the “Root Length” value ([2]; 0.1 ppm) was 3.7 cm and the “Root Length” value ([2]; 0.25 ppm) was 4.4 cm. For the same compound, the “Root Length” value ([2]; 0.5 ppm) was 3.7 cm, the “Root Length” value ([2]; 1.0 ppm) was 3.8 cm and the “Average fresh shoot weight versus untreated control, in words” value ([3]; across 0.005 to 0.5 gram per 100 kilogram seeds) was “larger than that of the untreated control group”. The “Percent (shoot weight, untreated control = 100)” value [3, 6] was 104%, the “Average weight of the shoots” value [3, 6] was 4.0 grams/plant and the “Percent (shoot weight, untreated control = 100)” value [3, 7] was 133%. For the same compound, the “Average weight of the shoots” value [3, 7] was 5.1 grams/plant, the “Percent (shoot weight, untreated control = 100)” value [3, 8] was 115% and the “Average weight of the shoots” value [3, 8] was 4.4 grams/plant. The “Average weight of the shoots” value ([4]; 0.5 grams/100-kg seeds) was 19.7, the “Percent (shoot weight, untreated control = 100)” value ([4]; 0.5 grams/100-kg seeds, low temperature stress) was 128% and the “Average weight of the shoots” value ([4]; 5 grams/100-kg seeds) was 39.8. For the same compound, the “Percent (shoot weight, untreated control = 100)” value ([4]; 5 grams/100-kg seeds, low temperature stress) was 258%, the “Average weight of the shoots” value ([4]; 50 grams/100-kg seeds) was 34.8 and the “Percent (shoot weight, untreated control = 100)” value ([4]; 50 grams/100-kg seeds, low temperature stress) was 226%. The “Average fresh shoot weight versus untreated control, in words” value ([4]; across 0.5 to 50 grams per 100 kilogram seeds, low temperature stress) was “larger than that of the untreated control”, the “Average fresh weight of young seed heads versus untreated controls, in words” value ([5]; 1 ppm to 100 ppm foliar spray, high temperature stress) was “larger than those of the untreated controls” and the “Average fresh weight of young ears” value ([5]; foliar spray 1 ppm) was 1.71 grams/3 plants. For the same compound, the “Percent (untreated control = 100)” value ([5]; foliar spray 1 ppm, high temperature stress) was 105%, the “Average fresh weight of young ears” value ([5]; foliar spray 10 ppm) was 1.70 grams/3 plants and the “Percent (untreated control = 100)” value ([5]; foliar spray 10 ppm, high temperature stress) was 104%. The “Average fresh weight of young ears” value ([5]; foliar spray 100 ppm) was 1.87 grams/3 plants and the “Percent (untreated control = 100)” value ([5]; foliar spray 100 ppm, high temperature stress) was 115%.
